From PMC7248923, “A New Oleanane Type Saponin from the Aerial Parts of Nigella sativa with Anti-Oxidant and Anti-Diabetic Potential” (Molecules, 2020)

What was measured:
[1] = DPPH radical scavenging assay; conditions: mean of three determinations ± SD; Nd = not detected; 30 min at 37 °C, 517 nm
Experimental: The DPPH activity of the isolated compounds and extracts were evaluated as described previously. Twenty μ L of samples having different concentrations of the extract (100, 500, 250, and 125 µg/mL) and isolated compounds (100, 75, 50, and 25 μ M) keeping the total volume of solution at 180 μL (0.1 mM) solution, was added in 96 well plates and incubated for 30 min at 37 °C. The observation was measured at 517nm. Each observation was done in triplicate. Ascorbic acid and Trolox were used as positive controls, while methanol was used as a negative control. Inhibition % was calculated. Data were presented as the mean ± S.D.

[2] = ABTS radical scavenging assay; conditions: mean of three determinations ± SD; Nd = not detected; 732 nm
Experimental: ABTS inhibition of the isolated compounds and extracts were evaluated as described previously. Stock solution was prepared by mixing an equal volume of 7.4 mM of ABTS and 2.6 mM of potassium persulfate and kept for 24 hours before diluting with methanol. Later the solution was diluted with methanol till the absorbance at 732 nm came within the range of 0.8–1.2. To 50 µL of sample solutions of different concentration (250, 125, 100, 50 μM ) 950 μL of ABTS* was added. Absorbance was measured at 732 nm by a spectrophotometer. Ascorbic acid and Trolox, and methanol were used as a positive and negative controls, respectively. All observations were done in triplicate. Percentage inhibition was calculated from the observations. Data were presented as mean ± S.D.

human recombinant PTP1B = biological target: T1, human recombinant PTP1B (Homo sapiens, UniProt P18031); assay: PTP1B inhibitory assay (pNPP substrate); type: biochemical; conditions: mean of three determinations ± SD, Nd = not detected, pH 6, 37 °C
T1 construct: purchased Sigma-Aldrich
T1 sequence (P18031 1-435): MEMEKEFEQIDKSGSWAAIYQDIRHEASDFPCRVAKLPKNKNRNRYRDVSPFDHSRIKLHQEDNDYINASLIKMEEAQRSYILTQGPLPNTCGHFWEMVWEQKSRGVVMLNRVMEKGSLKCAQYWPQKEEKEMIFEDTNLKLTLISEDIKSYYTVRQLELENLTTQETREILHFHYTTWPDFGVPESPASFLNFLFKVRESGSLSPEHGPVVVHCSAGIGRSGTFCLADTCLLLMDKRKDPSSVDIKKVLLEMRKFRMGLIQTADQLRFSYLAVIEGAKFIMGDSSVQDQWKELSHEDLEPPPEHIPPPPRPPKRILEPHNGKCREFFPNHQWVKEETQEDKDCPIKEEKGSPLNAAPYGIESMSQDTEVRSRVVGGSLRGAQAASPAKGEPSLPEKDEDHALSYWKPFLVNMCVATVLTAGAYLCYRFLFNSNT
Experimental: The inhibitory activity of the isolated compounds against human recombinant PTP1B was evaluated using p-nitrophenyl phosphate (pNPP) as a substrate. Firstly, 2 mM pNPP and PTP1B were mixed with 50 mM citrate buffer of pH 6 and 0.1 mM NaCl, 1 mM EDTA, and 1 mM DTT with or without sample keeping the final volume of the solution at 110 μL and placing them in a 96 wells plate. […] The plate was first pre-incubated for 10 min at 37 °C, and then 50 μL of pNPP in buffer was added. The plate was again incubated for 30 min at 37 °C. After that, 10 μL of 10M NaOH was added dropwise to stop the reaction. […] The inhibition percentage was calculated with the formula [( Ac−As/Ac )] × 100%, where Ac is the absorbance of control while As is the absorbance of the sample. […] Data were presented as mean ± S.D [35].

IC50 [1] | IC50 [2] | IC50 (human recombinant PTP1B) | Compound
51.7 ± 0.1 µM | 82.9 ± 2 µM |  | O=C1O[C@H]([C@@H](O)CO)C(O)=C1O [Ascorbic acid, reference compound]
71 ± 0.5 µM | 139.2 ± 0.5 µM |  | COc1ccc2c(c1O)-c1c(O)c(OC)cc3c1[C@H](C2)[N+](C)(C)CC3 [Compound 5, magnoflorine]
35.5 ± 0.5 µM | 98.8 ± 0.5 µM |  | O=c1c(OC2OC(CO)C(O)C(O)C2OC2OC(CO)C(O)C(O)C2OC2OC(CO)C(O)C(O)C2O)c(-c2ccc(O)c(O)c2)oc2cc(O)cc(O)c12 (stereo not shown) [Compound 8, quercetin sphorotrioside]
198 ± 2.7 µM | 247 ± 2.7 µM |  | O=c1c(OC2OC(CO)C(O)C(O)C2O)c(-c2ccc(O)cc2)oc2cc(OC3OC(CO)C(O)C(O)C3O)cc(O)c12 (stereo not shown) [Compound 9, kaempferol-3,7-diglucoside]
39.6 ± 0.5 µM | 129 ± 0.5 µM |  | C[C@@H]1O[C@@H](OC[C@H]2O[C@@H](Oc3c(-c4ccc(O)c(O)c4)oc4cc(O)cc(O)c4c3=O)[C@H](O)[C@@H](O)[C@@H]2O)[C@H](O)[C@H](O)[C@H]1O [Compound 11, rutin]
 |  | 91.3 ± 2.5 µM | CC1OC(OC2C(OC3CCC4(C)C(CCC5(C)C4CC=C4C6CC(C)(C)CCC6(C(=O)O)CCC45C)C3(C)CO)OCC(O)C2O)C(O)C(O)C1O [Compound 12, 3-O-[α-L-rhamnopyranosyl-(1→2)-α-L-arabinopyranpsyl]hederagenin]
59.4 ± 0.9 µM | 96.2 ± 1.5 µM |  | Cc1c(C)c2c(c(C)c1O)CCC(C)(C(=O)O)O2 (stereo not shown) [Trolox, reference compound]
